Assay results taken from ChEMBL document CHEMBL3045203, “Synthesis and biological evaluation of some N4-substituted 5-nitroisatin-3-thiosemicarbazones” (Med Chem Res, 2012).
Calls of active or inactive are those of the source. The calls are words filed in the database; no cut-off is given here.

Assays:
[1] = Toxicity inArtemia salina (brine shrimp) larvae assessed as mortality after 24 hr; assay type: organism-based; details: artemia salina, in vivo; read-out: LD50
Fusarium solani = assay: Antifungal activity against Fusarium solani at 200 ug/ml after 7 days; assay type: functional; details: 168 h
Homo sapiens [2] = species: Homo sapiens; assay: Inhibition of […] urease using urea as substrate at 10 uM preincubated for 5 min before substrate addition measured after 10 min relative to control
Lemna aequinoctialis [3] = assay: Phytotoxicity against Lemna aequinoctialis assessed as growth inhibition at 10 ug/ml; assay type: functional; details: read-out: GI
Lemna aequinoctialis [4] = assay: Phytotoxicity against Lemna aequinoctialis assessed as growth inhibition at 1000 ug/ml; assay type: functional; details: read-out: GI
Homo sapiens [5] = species: Homo sapiens; assay: Inhibition of […] urease using urea as substrate at 0.1 uM preincubated for 5 min before substrate addition measured after 10 min relative to control
Microsporum canis = assay: Antifungal activity against Arthroderma otae at 200 ug/ml after 7 days; assay type: functional; details: 168 h
Candida albicans = assay: Antifungal activity against Candida albicans at 200 ug/ml after 7 days; assay type: functional; details: 168 h
Homo sapiens [6] = species: Homo sapiens; assay: Inhibition of […] urease using urea as substrate at 100 uM preincubated for 5 min before substrate addition measured after 10 min relative to control
Aspergillus flavus = assay: Antifungal activity against Aspergillus flavus at 200 ug/ml after 7 days; assay type: functional; details: 168 h
Homo sapiens [7] = species: Homo sapiens; assay: Inhibition of […] urease using urea as substrate at 1 uM preincubated for 5 min before substrate addition measured after 10 min relative to control
Lemna aequinoctialis [8] = assay: Phytotoxicity against Lemna aequinoctialis assessed as growth inhibition at 100 ug/ml; assay type: functional; details: read-out: GI
Homo sapiens [9] = species: Homo sapiens; assay: Inhibition of […] urease using urea as substrate at 0.01 uM preincubated for 5 min before substrate addition measured after 10 min relative to control
Nakaseomyces glabratus = assay: Antifungal activity against Candida glabrata at 200 ug/ml after 7 days; assay type: functional; details: 168 h
[10] = Inhibition of […] urease using urea as substrate preincubated for 5 min before substrate addition measured after 10 min
Homo sapiens [11] = species: Homo sapiens; assay: Increase of […] urease using urea as substrate at 0.01 uM preincubated for 5 min before substrate addition measured after 10 min relative to control
Homo sapiens [12] = species: Homo sapiens; assay: Increase of […] urease using urea as substrate at 0.1 uM preincubated for 5 min before substrate addition measured after 10 min relative to control
Homo sapiens [13] = species: Homo sapiens; assay: Increase of […] urease using urea as substrate at 100 uM preincubated for 5 min before substrate addition measured after 10 min relative to control
Homo sapiens [14] = species: Homo sapiens; assay: Increase of […] urease using urea as substrate at 10 uM preincubated for 5 min before substrate addition measured after 10 min relative to control
Homo sapiens [15] = species: Homo sapiens; assay: Increase of […] urease using urea as substrate at 1 uM preincubated for 5 min before substrate addition measured after 10 min relative to control

SMILES | LC50 at 24 h [1] | inhibition at 200 µg/mL (Fusarium solani) | inhibition (Homo sapiens [2]) | inhibition of growth at 10 µg/mL (Lemna aequinoctialis [3]) | inhibition of growth at 1000 µg/mL (Lemna aequinoctialis [4]) | inhibition (Homo sapiens [5]) | inhibition at 200 µg/mL (Microsporum canis) | inhibition at 200 µg/mL (Candida albicans) | inhibition (Homo sapiens [6]) | inhibition at 200 µg/mL (Aspergillus flavus) | inhibition (Homo sapiens [7]) | inhibition of growth at 100 µg/mL (Lemna aequinoctialis [8]) | inhibition (Homo sapiens [9]) | inhibition at 200 µg/mL (Nakaseomyces glabratus) | IC50 [10] | Activity (Homo sapiens [11]) | Activity (Homo sapiens [12]) | Activity (Homo sapiens [13]) | Activity (Homo sapiens [14]) | Activity (Homo sapiens [15])
COc1ccc(NC(=S)N/N=C2\C(=O)Nc3ccc([N+](=O)[O-])cc32)cc1 | > 1340 µM | 0% | 38.6% | 10% | 25% | 44% | 0% | 0% | 46.6% | 20% | 33.6% | 15% | 47.6% | 0% |  |  |  |  |  | 
NC(N)=S [THIOUREA] |  |  | 8.09% |  |  | 14.5% |  |  | 94.3% |  | 20.9% |  | 8.16% |  | 50.1 µM |  |  |  |  | 
O=C1Nc2ccc([N+](=O)[O-])cc2/C1=N/NC(=S)Nc1ccc(Br)cc1 | > 1190 µM | 0% | 8% | 10% | 20% | 4.5% | 0% | 0% | 4% | 20% | 6.6% | 15% | 18.9% | 0% |  |  |  |  |  | 
O=C1Nc2ccc([N+](=O)[O-])cc2/C1=N/NC(=S)Nc1ccc(I)cc1 | > 1070 µM | 0% | 47% | 5% | 25% | 51% | 0% | 0% | 50% | 0% | 52% | 10% | 57% | 0% | 0.901 µM |  |  |  |  | 
O=C1Nc2ccc([N+](=O)[O-])cc2/C1=N/NC(=S)Nc1ccc(F)cc1 | > 1390 µM | 20% |  | 5% | 20% |  | 20% | 0% |  | 0% |  | 15% |  | 0% |  | inactive | inactive | inactive | inactive | inactive
C=CCNC(=S)N/N=C1\C(=O)Nc2ccc([N+](=O)[O-])cc21 | > 1630 µM | 0% | 8% | 25% | 50% | 15% | 20% | 0% | 15.9% | 0% | 12% | 35% | 21.6% | 0% |  |  |  |  |  | 
CCCCCCNC(=S)N/N=C1\C(=O)Nc2ccc([N+](=O)[O-])cc21 | > 1430 µM | 0% | 27% | 25% | 60% | 58% | 50% | 0% | 40.9% | 0% | 37% | 35% | 60% | 0% | 0.44 µM |  |  |  |  | 
COc1ccc(NC(=S)N/N=C2\C(=O)Nc3ccc([N+](=O)[O-])cc32)c(OC)c1 | > 1240 µM | 0% | 53.5% | 15% | 30% | 66.8% | 20% | 0% | 37.9% | 20% | 61% | 25% | 68% | 0% | 27.9 µM |  |  |  |  | 
N#Cc1cccc(NC(=S)N/N=C2\C(=O)Nc3ccc([N+](=O)[O-])cc32)c1 | 1160 µM | 15% | 12.6% | 5% | 25% | 16% | 20% | 0% | 8.9% | 20% | 1.8% | 15% | 20.7% | 0% |  |  |  |  |  | 
Cc1ccc(NC(=S)N/N=C2\C(=O)Nc3ccc([N+](=O)[O-])cc32)cc1 | > 1400 µM | 30% | 4% | 15% | 30% | inactive | 40% | 0% | 7% | 30% | 4% | 20% | 8% | 0% |  |  |  |  |  | 
Cc1cccc(NC(=S)N/N=C2\C(=O)Nc3ccc([N+](=O)[O-])cc32)c1 | > 1400 µM | 30% | 22% | 10% | 25% | 5.8% | 0% | 0% | 34% | 0% | 13.9% | 20% | 6.5% | 0% |  |  |  |  |  | 
COc1ccc(OC)c(NC(=S)N/N=C2\C(=O)Nc3ccc([N+](=O)[O-])cc32)c1 | > 1240 µM | 0% | 17.8% | 25% | 35% | 25.9% | 20% | 0% | 11% | 40% | 15.6% | 30% | 34.5% | 0% |  |  |  |  |  | 
O=C1Nc2ccc([N+](=O)[O-])cc2/C1=N/NC(=S)Nc1ccccc1C(F)(F)F | > 1220 µM | 0% | 20.9% | 10% | 25% | 23% | 20% | 0% | 21% | 0% | 30.9% | 15% | 21.6% | 0% |  |  |  |  |  | 
